Measurements from patent US4416826A, “Peresters and use thereof” (priority 1980, dated 1983).
“Also recorded” adds a separate entry of the source. Blank lines part the entries; values can stand above or below the compound they belong to.

Legend:
[1] = Polymerization of unsaturated polyester films under UV lamp (wipe resistance, pendulum hardness); conditions: for Passes necessary to achieve resistance to wiping: 0.2 parts in 10 parts resin, 100μ film, 17 m/min
Experimental: This mixture is stirred until a solution is obtained, which is then drawn out on glass plates with a film drawer (100μ). […] The samples are passed, on a conveyer belt, under the UV-lamp at a rate of 17 m/min. (20 volts).
In addition, the hardness of the film is determined using a pendulum apparatus according to Konig.

[2] = literature discussion; cited from earlier work
[3] = Photodecomposition kinetics and quantum yields at 366 nm (benzophenone-benzhydrol actinometry); format: physicochemical
Experimental: Kinetic studies are carried out in degassed, sealed tubes by irradiating them with 366 nm light obtained from a Hanovia medium-pressure mercury lamp by combining the Corning Filters 0-52 and 7-60. The decompositions of the […] followed by the carbonyl IR absorption adjacent to the peroxide group (O=COO--) (1770 cm^-1). Benzophenone-benzhydrol redox actinometry are used throughout the study. In particular, a solution of […] (2 mL) in the appropriate solvent is placed in Pyrex tubes (12-mm diameter), degassed, and sealed under vacuum. Three cycles of freeze-thaw removes dissolved oxygen. The tubes are placed in a merry-go-round around a water-cooled light source, removed at different predetermined intervals, and kept frozen in liquid nitrogen in the dark until analysis is done. The estimation of […] done by quantitative IR, monitoring the carbonyl peak at 1770 cm^-1. […] Absorbance is measured with a 0.1 mm NaCl cell against solvent reference. With every run, two tubes containing actinometric solutions (benzophenone (0.1 M) and benzhydrol (0.05 M) in benzene are irradiated.

[4] = Polymerization of methyl methacrylate; conditions: initiator 5 × 10^-2 M, [MMA] = 3.1 M, 25° C., benzene
Experimental: Commercial methyl methacrylate monomer is washed three times with 2% NaOH solution to remove stabilizer. It is then washed with distilled water three times, dried with molecular sieves, and distilled under vacuum before use. Polymerization solutions are prepared in cylindrical tubes which are degassed and sealed. The amount of polymer formed is determined by precipitating the polymer with an excess of methanol, washing with methanol, and filtering through fine sintered crucibles (previously weighed) followed by drying in a vacuum oven. The irradiation condition is the same as that in the decomposition rate example hereinabove.

[5] = Thermal stability / thermal decomposition of peresters in the dark; format: physicochemical
[6] = Photolysis of peresters and analysis of photoproducts; format: physicochemical; conditions: methanol compared with cyclohexane or with other peresters
Experimental: The amount of perester used is in the range of 300-500 mg. The solutions are placed in Pyrex tubes, flushed with nitrogen for 10 min., and sealed with a rubber cap.
After the irradiation, the yield of CO2 is measured by applying N2 pressure and trapping the CO2 with a Ba(OH)2 solution. The photolyzed solutions are evaporated (in the case of perester Ia treatment with excess diazomethane gives the best separation procedure) and again evaporated. Chromatography over 2 mm silica gel plates (E. Merck) with dichloromethane as the developing solvent separates the products. Extraction of the silica gel is done with ether. The identity of each sample is confirmed by GLC or high-pressure LC by comparison with authentic samples or by melting points of the solids.
This is shown by comparison with an authentic sample and combination of spectroscopic techniques. […] The same product is formed when 4-benzoylbenzoic acid is irradiated for 2 hours in CH3 OH in 26% yield. The structure of this secondary photoproduct is shown by independent synthesis (reduction of methyl 4-benzoylbenzoate by NaBH4). Among other secondary photoproducts found in small amounts is a mixture of pinacols. These are confirmed by synthesis of a similar pinacol mixture upon irradiation of methyl 4-benzoylbenzoate in isopropyl alcohol. […]

Triplet energy = format: physicochemical
[7] = Stern-Volmer triplet quenching with naphthalene; format: physicochemical; conditions: C6 H6
Source text: All the peresters give linear Stern-Volmer plots when naphthalene is used as triplet quencher.

[8] = Photopolymerization of styrene, radical efficiency; conditions: chloroform, [I] 5.00 × 10^-3 M
Experimental: (§1) Commercial styrene is washed three times with ice cold 2% NaOH solution followed by washing (four times) with distilled water. The styrene is dried over anhydrous CaCl2 and distilled under vacuum before use. The middle fraction of the distillate is used for polymerization. Solvents are purified by conventional means and distilled under N2 atmosphere.
(§2) The irradiations are carried out in degassed (three cycles of freeze-thaw under high vacuum) sealed 15-mm Pyrex tubes. The tubes are placed in a merry-go-round with a filtered UV source of 366 nm at the center and the yield of polymer is measured (below 10% conversion) gravimetrically. In all of the cases, tubes of the same size and same volume of solution are used. Number-average molecular weights of the purified polymers are determined by viscometry in a benzene solution. After the polymerization, an aliquot of 0.5 ml from each reaction tube is placed in 2-ml volumetric flasks. The solvent and excess monomer are evaporated under high vacuum for several hours. The remaining flask contents are dissolved in 0.5 ml of benzene or chloroform and the polymer is precipitated by adding 0.5 ml of n-hexane. The solution then is centrifuged and the IR of the centrifugate is measured to determine undecomposed perester. All of the above procedures are carried out as far as possible in the dark. The light intensity is measured by benzophenone-benzhydrol actinometry and observed to be Io =6.56×10^17 quanta/min on the average. The temperature of the tubes is maintained at 30° C.
The efficiency of the radicals to initiate polymerization, f, in the absence of any appreciable amount of chain transfer, can be defined as [formula] assuming bimolecular termination by the combination of two growing chains only [formula] whereas kd =rate of decomposition of perester in mol/liter sec. in the absence of monomer (a function of light intensity).

[9] = End group analysis of polystyrene by IR
Experimental: The polystyrene obtained from each of the above polymerizations is purified by repeated (four times) precipitation from benzene solution with methanol. Before each precipitation, the benzene solution is centrifuged to remove any insoluble material. The finely powdered polymer is filtered and dried under vacuum for two days. Known amounts of polymer are dissolved in benzene and the IR is taken (2000-1500 cm^-1) against benzene in 0.1-mm NaCl cells. The peaks at 1730 and 1670 cm^-1 for the carbonyl groups, caused by ester and benzophenones, respectively, are measured. […] The extinction coefficient of the carbonyl group at 1730 cm^-1 is compared with that of authenticated methyl benzoylbenzoate, which is used as a model to measure the concentration of the ester end groups in the polymer. From the concentration of the ester and the extinction resulting from the carbonyl group in the benzophenone, the absorption caused by the benzophenone that is present as the ester can be calculated. The value is subtracted from the absorption obtained at 1670 cm^- 1 for the polymer. From the resulting absorption, the concentration of benzophenone alone is estimated from the known extinction of benzophenone at that wavelength.

Solubility in benzene = format: physicochemical
[10] = Relative quantum yield of initiator decomposition in presence of monomer (IR at 1770 cm^-1); format: physicochemical; conditions: for relative quantum yield φrel of decomposition: chloroform, initiator 2 × 10^-2 M
Experimental: as §1, §2
The decomposition of the initiator employed is followed by IR at 1770 cm^-1 (caused by the carbonyl adjacent to the peroxy group) against an appropriate solvent blank. The initiators employed are .rho.-benzoylperoxybenzoic acid tert-butylester (Ia) and prior art benzophenone peroxide. In addition, the above procedure is repeated except that methyl methacrylate is employed in place of styrene. Table IX below illustrates the relative quantum yield for the decomposition of the initiators in the recited amounts of monomers, assuming that the quantum yield for the decomposition of the perester and peroxide in the absence of any monomer is one.

[11] = 110° C., chlorobenzene, dark, initial concn Ia 5.01, Ib 5.15, Ic 5.19 × 10^-2 M
[12] = Exp. 7: chloroform, [I] 5.0 × 10^-3 M, styrene 3.61 M
[13] = Exp. 8: chloroform, [I] 4.52 × 10^-3 M, styrene 4.33 M
[14] = Exp. 9: chloroform, [I] 4.94 × 10^-3 M, styrene 5.88 M

Structure (SMILES): COc1ccc(C(=O)c2ccc(C(=O)OOC(C)(C)C)cc2)cc1
Passes necessary to achieve resistance to wiping [1]: 14
Pendulum hardness according to Konig, H ([1]; after 14 passes): 23
Pendulum hardness according to Konig, H ([1]; after 16 passes): 26

Structure (SMILES): Cc1ccc(C(=O)c2ccc(C(=O)OOC(C)(C)C)cc2)cc1
Passes necessary to achieve resistance to wiping [1]: 13
Pendulum hardness according to Konig, H ([1]; after 13 passes): 23
Pendulum hardness according to Konig, H ([1]; after 15 passes): 51

Structure (SMILES): O=C(c1ccccc1)c1ccccc1 [Benzophenone, reference compound]
Passes necessary to achieve resistance to wiping [1]: > 20
Pendulum hardness according to Konig, H ([1]; number of passes for hardness not given): wet
triplet energy [2]: ~69 kcal/mol

Structure (SMILES): O=C(OOC(=O)c1ccccc1)c1ccccc1 [Bz2 O2, benzoyl peroxide, reference compound]
photodecomposition behaviour, in words ([3]; 366 nm radiation, room temperature): photostable
quantum yield of sensitized decomposition (φ of dec) ([3]; C6 H6, 4.67 × 10^-2 M, benzophenone 5.89 × 10^-2 M): 0.32
sensitized photodecomposition rate constant kd × 10^4 ([3]; C6 H6, 25° C., 4.67 × 10^-2 M, benzophenone 5.89 × 10^-2 M, given as kd × 10^4): 0.64 s^-1
quantum yield of sensitized decomposition (φ of dec) ([3]; CCl4, 3.50 × 10^-2 M, benzophenone 3.75 × 10^-2 M): 0.17
Rate of Polymerization (Rp) of MMA, Rp × 10^5 ([4]; benzophenone 5.5 × 10^-2 M): 2.58 mL^-1 s^-1
thermal decomposition, in words ([5]; 80° C. in benzene): a decomposition rate comparable to the literature value

apparent first-order photodecomposition rate constant kd × 10^4 ([3]; C6 H6, 25° C., 366 nm, I = 6.56 × 10^17 quanta/min, 5.03-6.06 × 10^-2 M, given as kd × 10^4): 1.34 s^-1
quantum yield of decomposition (φ of dec) ([3]; C6 H6, 366 nm, perester 5.03-6.06 × 10^-2 M): 0.80
quantum yield of decomposition (φ of dec) ([3]; methanol, TBP 5.08 × 10^-2 M, Ia 5.38, Ib 6.15 × 10^-2 M): 0.62
quantum yield of decomposition (φ of dec) ([3]; methanol, no TBP, Ia 5.38, Ib 6.15, Ic 5.10 × 10^-2 M): 1.30
triplet energy ET (Triplet energy): 67.4 kcal/mol
thermal half-life t1/2 [5, 11]: 10.7 h
quenching constant kq τ [7]: 15
Structure (SMILES): Cc1cc(C)c(C(=O)c2ccc(C(=O)OOC(C)(C)C)cc2)c(C)c1 [Ib, Tert-butyl-4-(2',4',6'-trimethylbenzoyl)perbenzoate]
Rate of Polymerization (Rp) of MMA, Rp × 10^5 [4]: 8.31 mL^-1 s^-1
rate of photodecomposition, qualitative [6]: the effect of methanol is to slow the rate of decomposition; also recorded: apparently slower rate of decomposition in methanol than either that of Ia or Ic
thermal 1st order dec rate × 10^5 [5, 11]: 1.80 M × 10^5 s^-1

φrel ([8]; [M] 3.61 M): 0.08
φrel ([8]; [M] 4.33 M): 0.08
φrel ([8]; [M] 5.88 M): 0.08
solubility in benzene (Solubility in benzene): insoluble in benzene
relative quantum yield φrel of decomposition ([10]; styrene 2.18 M): 0.05
relative quantum yield φrel of decomposition ([10]; styrene 2.23 M): 0.06
relative quantum yield φrel of decomposition ([10]; styrene 4.26 M): 0.08
Structure (SMILES): O=C(OOC(=O)c1ccc(C(=O)c2ccccc2)cc1)c1ccc(C(=O)c2ccccc2)cc1 [Peroxide, reference compound]
Average degree of polymerization ([8]; [M] 3.61 M): 159.6
Radical efficiency f ([8]; [M] 3.61 M): 0.33
Rp × 10^5 ([8]; [M] 3.61 M): 1.07 mole/liter sec
Average degree of polymerization ([8]; [M] 4.33 M): 155.8
Radical efficiency f ([8]; [M] 4.33 M): 0.33
Rp × 10^5 ([8]; [M] 4.33 M): 1.04 mole/liter sec
Average degree of polymerization ([8]; [M] 5.88 M): 372.9
Radical efficiency f ([8]; [M] 5.88 M): 0.26
Rp × 10^5 ([8]; [M] 5.88 M): 1.72 mole/liter sec
total number of benzophenones as end groups per chain, in words [9]: almost two
end groups per chain, Benzophenone [9, 12]: 0.54
end groups per chain, Benzophenone as ester [9, 12]: 1.29
end groups per chain, Total [9, 12]: 1.83
end groups per chain, Benzophenone [9, 13]: 0.62
end groups per chain, Benzophenone as ester [9, 13]: 1.30
end groups per chain, Total [9, 13]: 1.92
end groups per chain, Benzophenone [9, 14]: 0.72
end groups per chain, Benzophenone as ester [9, 14]: 1.36
end groups per chain, Total [9, 14]: 2.08
effect of styrene on quantum yield of decomposition, in words [10]: the quenching effect being greater with the peroxide than the perester

Structure (SMILES): C=Cc1ccccc1 [Styrene]
triplet energy [2]: 62 kcal/mol

Structure (SMILES): CC(C)(C)OOC(=O)c1ccc(C(=O)c2ccccc2)cc1 [drawing 15]
Passes necessary to achieve resistance to wiping [1]: 12
Pendulum hardness according to Konig, H ([1]; after 12 passes): 24
Pendulum hardness according to Konig, H ([1]; after 14 passes): 38
